From patent US12433889B2 (priority 2021, dated 2025)
Values after ≈ are worked out from the molar mass of the structure shown.

Legend:
[1] = system: M. avium ATCC 700898; test: MIC by microbroth dilution, with and without CF sputum; format: cell-based; conditions: Mycobacterium avium
[2] = system: M. intracellulare DSM 43223; test: as above; format: cell-based; conditions: Mycobacterium intracellulare
[3] = system: M. Chimaera CIP 107892; test: as above; format: cell-based; conditions: Mycobacterium intracellulare
[4] = system: M. avium B18101968; test: as above; format: cell-based; conditions: Mycobacterium avium
[5] = system: M. abscessus CIP104536; test: as above; format: cell-based; conditions: Mycobacteroides abscessus
[6] = system: M. abscessus B18104072; test: as above; format: cell-based; conditions: Mycobacteroides abscessus
[7] = system: M. abscessus B15029863; test: as above; format: cell-based; conditions: Mycobacteroides abscessus
[8] = system: M. abscessus B12052284; test: as above; format: cell-based; conditions: Mycobacteroides abscessus
[9] = humans, microcrystalline suspension in an oil-wax base; cited from earlier work
[10] = BCS class II; cited from earlier work

MIC ([1]; ATCC700898, + SP (10% CF sputum)): > 2 µg/mL
MIC ([1]; ATCC700898, absence of sputum): 0.25 µg/mL (≈ 0.528 µM)
MIC ([2]; DSM43223, + SP (10% CF sputum)): > 2 µg/mL
MIC ([2]; DSM43223, absence of sputum): 1 µg/mL (≈ 2.11 µM)
MIC ([3]; CIP107892, + SP (10% CF sputum)): > 2 µg/mL
MIC ([3]; CIP107892, absence of sputum): 0.5 µg/mL (≈ 1.06 µM)
MIC ([4]; B18101968, + SP (10% CF sputum)): > 2 µg/mL
MIC ([4]; B18101968, absence of sputum): 0.5 µg/mL (≈ 1.06 µM)
MIC ([5]; CIP104536, + SP (10% CF sputum)): > 2 µg/mL
MIC ([5]; CIP104536, absence of sputum): 0.25 µg/mL (≈ 0.528 µM)
MIC ([6]; B18104072, + SP (10% CF sputum)): > 2 µg/mL
MIC ([6]; B18104072, absence of sputum): 1 µg/mL (≈ 2.11 µM)
MIC ([7]; B15029863, + SP (10% CF sputum)): > 2 µg/mL
MIC ([7]; B15029863, absence of sputum): 2 µg/mL (≈ 4.22 µM)
MIC ([8]; B12052284, + SP (10% CF sputum)): > 2 µg/mL
MIC ([8]; B12052284, absence of sputum): 2 µg/mL (≈ 4.22 µM)
SMILES: CC(C)/N=c1\cc2n(-c3ccc(Cl)cc3)c3ccccc3nc-2cc1Nc1ccc(Cl)cc1 [Clofazimine, clofazimine]
absorption after oral administration [9]: 45-62%
solubility in water [10]: practically insoluble in water
